# In patent publication US8952150B2, “Prostaglandin transporter inhibitors and uses thereof” (Albert Einstein College of Medicine of Yeshiva University, priority 2009, dated 2015):
# Target: rat PGT (Rattus norvegicus (Rat), UniProt Q00910)
# Assay: [3H]PGE2 uptake inhibition in MDCK cells stably transfected with rat PGT (percent inhibition and IC50)
# Type: cell-based
# Settings: for Inh (% of Ctl) 0.5 μM: 0.5 μM compound; for Inh (% of Ctl) 0.5 μM / Inh (% of Ctl) 5 μM / Inh (% of Ctl) 1 μM / Inh (% of Ctl) 10 μM / Inh (% of Ctl) 0.1 μM / Inh (% of Ctl) 2.5 μM: inhibition of [3H]PGE2 uptake; for Inh (% of Ctl) 5 μM: 5 μM compound; for Inh (% of Ctl) 1 μM: 1 μM compound; for Inh (% of Ctl) 10 μM: 10 μM compound; for IC50: [3H]PGE2 uptake, MDCK cells stably transfected with rat PGT; for Inh (% of Ctl) 0.1 μM: 0.1 μM compound; for Inh (% of Ctl) 2.5 μM: 2.5 μM compound
# Summary of the method: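 Rat PGT-transfected MDCK cells, on day 4 after seeding, took up [3H]PGE2 in Waymouth buffer at room temperature, with compound (EtOH stock diluted in buffer) added immediately before tracer. Intracellular radioactivity counted after lysis; percent inhibition versus vehicle, IC50 by fitting y=m1−m1*(m0/(m2+m0)).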
Structure (SMILES),Inh (% of Ctl) 0.5 μM,Inh (% of Ctl) 5 μM,Inh (% of Ctl) 1 μM,Inh (% of Ctl) 10 μM,IC50 [µM],Inh (% of Ctl) 0.1 μM,Inh (% of Ctl) 2.5 μM
COCCOCCOCCNC(=O)c1ccc(Nc2nc(NCCOCCOCCNC(=O)c3ccccc3)nc(Nc3ccc(O)cc3)n2)cc1 [compound 19],41.3 % of Ctl,75.0 % of Ctl,,,,,
O=C(NCCOCCOCCNc1nc(NCCO)nc(Nc2ccc(OCc3ccccc3)cc2)n1)c1ccccc1 [compound 6],3.6 % of Ctl,11.7 % of Ctl,,,,,
O=C(NCCOCCOCCNc1nc(Nc2ccccc2)nc(Nc2ccc(O)cc2)n1)c1ccc(-c2ccccc2)cc1 [compound 40],,,16.3 % of Ctl,46.9 % of Ctl,,,
CCCCCCNC(=O)c1ccc(Nc2nc(NCCOCCOCCNC(=O)c3ccccc3)nc(Nc3ccc4[nH]ncc4c3)n2)cc1 [compound 65],18.4 % of Ctl,84.0 % of Ctl,66.4 % of Ctl,90.0 % of Ctl,1.38,,
O=C(O)Cc1ccc(Nc2nc(NCCOCCOCCNC(=O)c3ccccc3)nc(Nc3ccccc3)n2)cc1 [compound 57],,29.5 % of Ctl,27.4 % of Ctl,56.6 % of Ctl,5.57,,
O=C(O)CCCCCCNc1nc(Nc2ccccc2)nc(Nc2ccc(O)cc2)n1 [compound 52],,,0.1 % of Ctl,1.8 % of Ctl,,,
O=C(NCCOCCOCCNc1nc(Cl)nc(Nc2ccc(OCc3ccccc3)cc2)n1)c1ccccc1 [compound 3],0.4 % of Ctl,1.7 % of Ctl,,,,,
CCCCCCNC(=O)c1ccc(Nc2nc(NCCOCCOCCNC(=O)c3ccccc3)nc(Nc3ccc(O)cc3)n2)cc1 [compound 44],,,65.0 % of Ctl,77.5 % of Ctl,0.76,,
CN(c1ccc(C(=O)NCc2ccccc2)cc1)c1nc(NCCOCCOCCNC(=O)c2ccccc2)nc(Nc2ccc(O)cc2)n1 [compound 124],85.4 % of Ctl,,,,0.034,68.8 % of Ctl,
CC(C)(C)NC(=O)c1ccc(Nc2nc(NCCOCCOCCNC(=O)c3ccccc3)nc(Nc3ccc(O)cc3)n2)cc1 [compound 16],11.8 % of Ctl,44.8 % of Ctl,,,9.77,,
O=C(NCCOCCOCCNc1nc(Nc2ccc(O)cc2)nc(Nc2ccc(C(=O)NCc3ccccn3)cc2)n1)c1ccccc1 [compound 70],21.2 % of Ctl,84.0 % of Ctl,,,1.05,,
CNC(=O)c1ccc(Nc2nc(NCCOCCOCCNC(=O)c3ccccc3)nc(Nc3ccc(O)cc3)n2)cc1 [compound 14],10.6 % of Ctl,35.9 % of Ctl,,,,,
O=C(NCCOCCOCCNc1nc(Nc2ccc(O)cc2)nc(Nc2ccc(O)cc2)n1)c1ccccc1 [compound 28],2.4 % of Ctl,56.5 % of Ctl,,,,,
O=C(NCCCCCCNc1nc(Nc2ccccc2)nc(Nc2ccc(O)cc2)n1)c1ccccc1 [compound 62],,,20.4 % of Ctl,50.1 % of Ctl,,,
O=C(NCCOCCOCCNc1nc(Nc2ccccc2)nc(Nc2ccc(C(=O)NCc3ccccc3)cc2)n1)c1ccccc1 [compound 116],59.4 % of Ctl,,,,,36.4 % of Ctl,
O=C(NCCOCCOCCNc1nc(NCCO)nc(Nc2ccc(O)cc2)n1)c1ccccc1 [compound 10],1.4 % of Ctl,15.0 % of Ctl,,,,,
O=C(NCCOCCOCCNc1nc(Nc2ccc(O)cc2)nc(Nc2ccc(C(=O)OCc3ccccc3)cc2)n1)c1ccccc1 [compound 69],24.9 % of Ctl,83.2 % of Ctl,,,0.89,,
O=C(NCCOCCOCCNc1nc(Nc2ccc(O)cc2)nc(Nc2ccc(C(=O)NCc3cccc4ccccc34)cc2)n1)c1ccccc1 [compound 89],33.8 % of Ctl,86.0 % of Ctl,,,,,76.5 % of Ctl
COc1ccc(CNC(=O)c2ccc(Nc3nc(NCCOCCOCCNC(=O)c4ccccc4)nc(Nc4ccc(O)cc4)n3)cc2)cc1 [compound 92],33.7 % of Ctl,80.6 % of Ctl,,,,,71.3 % of Ctl
O=C(NCCOCCNc1nc(Nc2ccc(O)cc2)nc(Nc2ccc(C(=O)NCc3ccccc3)cc2)n1)c1ccncc1 [compound 135],28.4 % of Ctl,,49.6 % of Ctl,,,13.2 % of Ctl,
CC(C)(NC(=O)c1ccc(Nc2nc(NCCOCCOCCNC(=O)c3ccccc3)nc(Nc3ccc(O)cc3)n2)cc1)c1ccccc1 [compound 66],10.9 % of Ctl,64.4 % of Ctl,,,,,

Structure (SMILES),Inh (% of Ctl) 0.5 μM,Inh (% of Ctl) 5 μM,Inh (% of Ctl) 1 μM,Inh (% of Ctl) 10 μM,IC50 [µM],Inh (% of Ctl) 0.1 μM,Inh (% of Ctl) 2.5 μM
COC(=O)c1ccc(Nc2nc(NCCOCCOCCNC(=O)c3ccccc3)nc(Nc3ccccc3)n2)cc1 [compound 61],,,7.5 % of Ctl,46.1 % of Ctl,,,
O=C(NCCOCCO)c1ccc(Nc2nc(NCCOCCOCCNC(=O)c3ccccc3)nc(Nc3ccc(O)cc3)n2)cc1 [compound 18],21.1 % of Ctl,48.9 % of Ctl,,,,,
O=C(O)CCCCCCNC(=O)c1ccc(Nc2nc(NCCOCCOCCNC(=O)c3ccccc3)nc(Nc3ccc(O)cc3)n2)cc1 [compound 48],,,14.2 % of Ctl,62.8 % of Ctl,,,
O=C(O)c1ccc(CNC(=O)c2ccc(Nc3nc(NCCOCCOCCNC(=O)c4ccccc4)nc(Nc4ccc(O)cc4)n3)cc2)cc1 [compound 112],17.5 % of Ctl,49.4 % of Ctl,,,,,32.2 % of Ctl
O=C(NCc1ccc(F)cc1)c1ccc(Nc2nc(Nc3ccc(O)cc3)nc(Nc3ccc(O)cc3)n2)cc1 [compound 145],3.1 % of Ctl,,6.9 % of Ctl,,,7.1 % of Ctl,
O=C(NCCOCCNc1nc(Nc2ccc(O)cc2)nc(Nc2ccc(C(=O)NCc3ccccc3)cc2)n1)Nc1ccccc1 [compound 139],30.7 % of Ctl,,39.0 % of Ctl,,,16.3 % of Ctl,
O=C(NCCOCCOCCNc1nc(Nc2ccc(O)cc2)nc(Nc2ccc(C(=O)NCc3ccc(F)c(F)c3)cc2)n1)c1ccccc1 [compound 129],45.1 % of Ctl,,65.6 % of Ctl,,,8.9 % of Ctl,
O=C(NCCO)c1ccc(Nc2nc(NCCOCCOCCNC(=O)c3ccccc3)nc(Nc3ccc(O)cc3)n2)cc1 [compound 21],15.7 % of Ctl,68.2 % of Ctl,,,,,
COC(=O)[C@H](NC(=O)c1ccc(Nc2nc(NCCOCCOCCNC(=O)c3ccccc3)nc(Nc3ccc(O)cc3)n2)cc1)c1ccccc1 [compound 73],,75.3 % of Ctl,,,,,38.9 % of Ctl
COC(=O)Cc1ccc(Nc2nc(NCCOCCOCCNC(=O)c3ccccc3)nc(Nc3ccc(C(=O)NCc4ccccc4)cc3)n2)cc1 [compound 122],38.1 % of Ctl,,,,,5.8 % of Ctl,
O=C(NCCOCCOCCNc1nc(Nc2ccc(O)cc2)nc(Nc2ccc(C(=O)NCc3ccccc3)c(C(F)(F)F)c2)n1)c1ccccc1 [compound 82],2.1 % of Ctl,47.6 % of Ctl,,,,,5.0 % of Ctl
O=C(NCCOCCOCCNc1nc(Nc2ccccc2)nc(Nc2ccc(O)cc2)n1)c1cc(F)cc(F)c1 [compound 35],,,20.4 % of Ctl,75.6 % of Ctl,,,
O=C(NCCOCCOCCNc1nc(Nc2ccc(O)cc2)nc(Nc2ccc(C(=O)NCc3ccccc3)cc2)n1)c1ccccc1 [compound 83],4.1 % of Ctl,42.0 % of Ctl,,,0.609,,10.4 % of Ctl
O=C(CCCCCCNc1nc(Nc2ccccc2)nc(Nc2ccc(O)cc2)n1)NCc1ccccc1 [compound 97],,19.4 % of Ctl,13.1 % of Ctl,30.8 % of Ctl,,,
O=C(NCCOCCOCCNc1nc(Nc2ccccc2)nc(Nc2ccc(O)cc2)n1)c1ccncc1 [compound 29],,,15.9 % of Ctl,49.6 % of Ctl,,,
O=C(NCCOCCOCCNc1nc(Nc2ccc(O)cc2)nc(Nc2ccc(C(=O)NCc3ccc(Cl)cc3Cl)cc2)n1)c1ccccc1 [compound 100],56.4 % of Ctl,86.0 % of Ctl,,,,41.1 % of Ctl,57.6 % of Ctl
O=C(NCCOCCOCCNc1nc(Nc2ccc(O)cc2)nc(Nc2ccc(C(=O)NCc3cc(Cl)cc(Cl)c3)cc2)n1)c1ccccc1 [compound 108],60.8 % of Ctl,76.6 % of Ctl,,,,70.3 % of Ctl,78.3 % of Ctl
COC(=O)c1ccc(CNc2nc(NCCOCCOCCNC(=O)c3ccccc3)nc(Nc3ccc(C(=O)NCc4ccccc4)cc3)n2)cc1 [compound 117],36.7 % of Ctl,,,,,8.1 % of Ctl,
O=C(NCCOCCOCCNc1nc(Nc2ccccc2)nc(Nc2ccc3cn[nH]c3c2)n1)c1ccccc1 [compound 75],,10.1 % of Ctl,8.4 % of Ctl,12.5 % of Ctl,,,
O=C(NCCOCCOCCNc1nc(Nc2ccccc2)nc(Nc2ccc(O)cc2)n1)c1cccc(Br)c1 [compound 36],,,30.3 % of Ctl,81.1 % of Ctl,,,
COC(=O)c1ccc(Nc2nc(NCCOCCOCCNC(=O)c3ccccc3)nc(Nc3ccc(O)cc3)n2)cc1 [compound 17],22.0 % of Ctl,55.6 % of Ctl,,,6.57,,
